Reference: US11905306B2 (priority 2021, dated 2024)

Key:
Toronto 2 SARS CoV-1 = assay: organism not typed; assay type: cell-based; conditions: Vero C1008, 72 h, read-out: SARS-1 EC50 (μM) VeroE6
USA_WA1/2020 SARS CoV-2 = assay: microbe, parasite or virus in culture; assay type: cell-based; conditions: Severe acute respiratory syndrome coronavirus 2, Vero C1008, 72 h, read-out: SARS-2 EC50 (μM) VeroE6
in vitro = conditions: African green monkey

**Q.** For `CCCC(=O)Nc1ccc(C(=O)Nc2cccc(C#Cc3ccccn3)c2)cc1` [Compound 7, 4-Butyramido-N-(3-(pyridin-2-ylethynyl)phenyl)benzamide], which EC50 (Toronto 2 SARS CoV-1) is on record?
**A.** Its EC50 is 0.16 µM.

**Q.** What about the EC50 (USA_WA1/2020 SARS CoV-2) of the same molecule?
**A.** The EC50 was 0.26 µM.

**Q.** What about the CC50 (in vitro) of the same molecule?
**A.** The CC50 was > 30 µM.

**Q.** Which EC50 (Toronto 2 SARS CoV-1) does the source give for `O=C(Nc1cccc(C#Cc2ccccn2)c1)c1ccc(NC(=O)C(F)(F)F)cc1` [Compound 10, N-(3-(Pyridin-2-ylethynyl)phenyl)-4-(2,2,2-trifluoroacetamido)benzamide] here?
**A.** Its EC50 is 4.89 µM.

**Q.** And the EC50 (USA_WA1/2020 SARS CoV-2)?
**A.** The EC50 was 6.52 µM.

**Q.** And the CC50 (in vitro)?
**A.** The CC50 was > 30 µM.

**Q.** Which EC50 (Toronto 2 SARS CoV-1) does the source give for `COC(=O)c1ccc(NC(=O)c2cccc(C#Cc3ccccn3)c2)cc1` [Compound 63, Methyl 4-(3-(pyridin-2-ylethynyl)benzamido)benzoate] here?
**A.** The EC50 was 0.43 µM.

**Q.** And the EC50 (USA_WA1/2020 SARS CoV-2)?
**A.** Its EC50 is 0.55 µM.

**Q.** What about the CC50 (in vitro) of the same molecule?
**A.** The CC50 was > 30 µM.

**Q.** What does the source list for `O=C(Nc1cccc(C#Cc2ccccn2)c1)c1ccc(N2CCCNC2=O)cc1` [Compound 15, 4-(2-Oxotetrahydropyrimidin-1(2H)-yl)-N-(3-(pyridin-2-ylethynyl)phenyl)benzamide]?
**A.** EC50 (Toronto 2 SARS CoV-1): 9.71 µM; EC50 (USA_WA1/2020 SARS CoV-2): 7.81 µM; CC50 (in vitro): > 30 µM

**Q.** With `COc1cc(C#Cc2ccccn2)cc(NC(=O)c2ccc3c(c2)CCCC(=O)N3)c1` [Compound 51, N-(3-Methoxy-5-(pyridin-2-ylethynyl)phenyl)-2-oxo-2,3,4,5-tetrahydro-1H-benzo[b]azepine-7-carboxamide] as the molecule, how does the EC50 (Toronto 2 SARS CoV-1) read?
**A.** Its EC50 is 0.51 µM.

**Q.** What about the EC50 (USA_WA1/2020 SARS CoV-2) of the same molecule?
**A.** The EC50 was 0.52 µM.

**Q.** What about the CC50 (in vitro) of the same molecule?
**A.** The CC50 was 12.2 µM.

**Q.** For `CCN(C(C)=O)c1ccc(NC(=O)c2cccc(C#Cc3ccccn3)c2)cc1` [Compound 56, N-(4-(N-ethylacetamido)phenyl)-3-(pyridin-2-ylethynyl)benzamide], which EC50 (Toronto 2 SARS CoV-1) is on record?
**A.** The EC50 was 1.11 µM.

**Q.** And the EC50 (USA_WA1/2020 SARS CoV-2)?
**A.** The EC50 was 1.58 µM.

**Q.** And the CC50 (in vitro)?
**A.** Its CC50 is > 30 µM.

**Q.** What does the source list for `N#Cc1cc(C#Cc2ccccn2)cc(NC(=O)c2ccc(N3CCCCC3=O)cc2)c1` [Compound 78]?
**A.** EC50 (Toronto 2 SARS CoV-1): 1.54 µM; EC50 (USA_WA1/2020 SARS CoV-2): 1.97 µM; CC50 (in vitro): > 30 µM

**Q.** For `NC(=O)Nc1ccc(C(=O)Nc2cccc(C#Cc3ccccn3)c2)cc1` [Compound 12, N-(3-(pyridin-2-ylethynyl)phenyl)-4-ureidobenzamide], which EC50 (Toronto 2 SARS CoV-1) is on record?
**A.** The EC50 was > 30 µM.

**Q.** And the EC50 (USA_WA1/2020 SARS CoV-2)?
**A.** Its EC50 is > 30 µM.

**Q.** What about the CC50 (in vitro) of the same molecule?
**A.** Its CC50 is > 30 µM.

**Q.** What does the source list for `COc1ccc(C(=O)Nc2ccc(C(=O)Nc3cccc(C#Cc4ccccn4)c3)cc2)cc1` [Compound 27, 4-Methoxy-N-(4-((3-(pyridin-2-ylethynyl)phenyl)carbamoyl)phenyl)benzamide]?
**A.** EC50 (Toronto 2 SARS CoV-1): > 30 µM; EC50 (USA_WA1/2020 SARS CoV-2): > 30 µM; CC50 (in vitro): > 30 µM

**Q.** With `CCOC(=O)Nc1ccc(C(=O)Nc2cccc(C#Cc3ccccn3)c2)cc1` [Compound 11, Ethyl (4-((3-(pyridin-2-ylethynyl)phenyl)carbamoyl)phenyl)carbamate] as the molecule, how does the EC50 (Toronto 2 SARS CoV-1) read?
**A.** Its EC50 is 0.84 µM.

**Q.** What about the EC50 (USA_WA1/2020 SARS CoV-2) of the same molecule?
**A.** The EC50 was 1.07 µM.

**Q.** What about the CC50 (in vitro) of the same molecule?
**A.** The CC50 was > 30 µM.

**Q.** With `Nc1cc(C#Cc2ccccn2)cc(NC(=O)c2ccc(N3CCCCC3=O)cc2)c1` [Compound 52, N-(3-Amino-5-(pyridin-2-ylethynyl)phenyl)-4-(2-oxopiperidin-1-yl)benzamide] as the molecule, how does the EC50 (Toronto 2 SARS CoV-1) read?
**A.** The EC50 was 26 µM.

**Q.** What about the EC50 (USA_WA1/2020 SARS CoV-2) of the same molecule?
**A.** The EC50 was 26 µM.

**Q.** What about the CC50 (in vitro) of the same molecule?
**A.** Its CC50 is > 30 µM.

**Q.** Which EC50 (Toronto 2 SARS CoV-1) does the source give for `COc1cc(C#Cc2ccccn2)cc(C(=O)Nc2ccc(CC3CC(=O)NC3=O)cc2)c1` (stereo not drawn) [Compound 79] here?
**A.** The EC50 was 4.45 µM.

**Q.** And the EC50 (USA_WA1/2020 SARS CoV-2)?
**A.** Its EC50 is 8.19 µM.

**Q.** What about the CC50 (in vitro) of the same molecule?
**A.** Its CC50 is > 30 µM.

**Q.** Which results are given for `O=C1Nc2ccc(C(=O)Nc3cccc(C#Cc4ccccn4)c3)cc2CO1` [Compound 3, Oxo-N-(3-(pyridin-2-ylethynyl)phenyl)-1,4-dihydro-2H-benzo[d][1,3]oxazine-6-carboxamide]?
**A.** EC50 (Toronto 2 SARS CoV-1): > 30 µM; EC50 (USA_WA1/2020 SARS CoV-2): 11.6 µM; CC50 (in vitro): 15.8 µM

**Q.** For `O=C(Nc1cccc(C#Cc2ccccn2)c1)c1ccc(-c2nnco2)cc1` [Compound 41, 4-(1,3,4-Oxadiazol-2-yl)-N-(3-(pyridin-2-ylethynyl)phenyl)benzamide], which EC50 (Toronto 2 SARS CoV-1) is on record?
**A.** The EC50 was 0.93 µM.

**Q.** What about the EC50 (USA_WA1/2020 SARS CoV-2) of the same molecule?
**A.** Its EC50 is 1.54 µM.

**Q.** What about the CC50 (in vitro) of the same molecule?
**A.** The CC50 was > 30 µM.

**Q.** With `O=C(Nc1ccc(C(=O)NC2CCCC2)cc1)c1cccc(C#Cc2ccccn2)c1` [Compound 62, N-(4-(cyclopentylcarbamoyl)phenyl)-3-(pyridin-2-ylethynyl)benzamide] as the molecule, how does the EC50 (Toronto 2 SARS CoV-1) read?
**A.** The EC50 was > 30 µM.

**Q.** What about the EC50 (USA_WA1/2020 SARS CoV-2) of the same molecule?
**A.** Its EC50 is 0.48 µM.

**Q.** And the CC50 (in vitro)?
**A.** The CC50 was > 30 µM.

**Q.** For `CCC(=O)Nc1ccc(C(=O)Nc2cccc(C#Cc3ccccn3)c2)cc1` [Compound 6, 4-Propionamido-N-(3-(pyridin-2-ylethynyl)phenyl)benzamide], which EC50 (Toronto 2 SARS CoV-1) is on record?
**A.** The EC50 was 0.92 µM.

**Q.** And the EC50 (USA_WA1/2020 SARS CoV-2)?
**A.** Its EC50 is 1.01 µM.

**Q.** And the CC50 (in vitro)?
**A.** Its CC50 is > 30 µM.

**Q.** For `CC(=O)N(C)c1ccc(C(=O)Nc2cccc(C#Cc3ccccn3)c2)cc1` [Compound 19, 4-(N-methylacetamido)-N-(3-(pyridin-2-ylethynyl)phenyl)benzamide], which EC50 (Toronto 2 SARS CoV-1) is on record?
**A.** Its EC50 is 2.19 µM.

**Q.** What about the EC50 (USA_WA1/2020 SARS CoV-2) of the same molecule?
**A.** Its EC50 is 3.92 µM.

**Q.** And the CC50 (in vitro)?
**A.** The CC50 was > 30 µM.

**Q.** Which EC50 (Toronto 2 SARS CoV-1) does the source give for `O=C(Nc1cccc(C#Cc2ccccn2)c1)c1ccc(C(=O)NC2CCC2)cc1` [Compound 38, N^1-cyclobutyl-N^4-(3-(pyridin-2-ylethynyl)phenyl)terephthalamide] here?
**A.** The EC50 was 0.75 µM.

**Q.** And the EC50 (USA_WA1/2020 SARS CoV-2)?
**A.** Its EC50 is 1.64 µM.

**Q.** And the CC50 (in vitro)?
**A.** Its CC50 is > 30 µM.
